From the supplement of paper PMC10307832

Legend:
Test in all cases: relative viability (nuclei count vs DMSO), 5 days (fraction); higher = more cells survive
[1] = system: LXF-289
Summary of the method: (§1)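 For relative viability, nuclei counts in treated wells were divided by those in vehicle wells. Lung cancer cell lines had been pin-tool dosed in 1536-well plates the day after seeding and cultured for 5 days, then fixed and stained in one step (final 0.05% Triton X-100, 1% formaldehyde, 1 ug/ml Hoechst) and imaged at 4×. Doses were one drug alone or a fixed anchor-drug dose plus five library-drug doses (not always all listed) in √10 steps, and values are duplicate-plate medians.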

[2] = system: EPLC-272H
Summary of the method: as §1

[3] = system: SW 1573
Summary of the method: as §1

[4] = system: LCLC-103H
Summary of the method: as §1

[5] = system: SW 900
Summary of the method: as §1

[6] = system: EMC-BAC-2
Summary of the method: as §1

[7] = system: RERF-LC-KJ
Summary of the method: as §1

[8] = system: NCI-H1975
Summary of the method: as §1

[9] = system: ChaGo-K-1
Summary of the method: as §1

[10] = system: NCI-H2085
Summary of the method: as §1

[11] = system: NCI-H2405
Summary of the method: as §1

[12] = system: LU99A
Summary of the method: as §1

[13] = system: NCI-H23
Summary of the method: as §1

[14] = system: LOU-NH91
Summary of the method: as §1

[15] = system: NCI-H2126
Summary of the method: as §1

[16] = system: HCC-827
Summary of the method: as §1

[17] = system: SK-LU-1
Summary of the method: as §1

[18] = system: HCC-366
Summary of the method: as §1

[19] = system: HCC-78
Summary of the method: as §1

[20] = system: HCC-44
Summary of the method: as §1

[21] = system: NCI-H3122
Summary of the method: as §1

[22] = system: NCI-H1666
Summary of the method: as §1

[23] = system: LK-2
Summary of the method: as §1

Work on `Clc1ccc(Nc2nnc(Cc3ccncc3)c3ccccc23)cc1` [Vatalanib] + CC(=O)Nc1cccc(-n2c(=O)n(C3CC3)c(=O)c3c(Nc4ccc(I)cc4F)n(C)c(=O)c(C)c32)c1 [Trametinib] (partner 0.02 µM) yielded a relative viability ([1]; first compound 0.04 µM) of 0.688, a relative viability ([1]; first compound 0.1265 µM) of 0.647 and a relative viability ([1]; first compound 0.4 µM) of 0.686. For the same compound, the relative viability ([1]; first compound 1.265 µM) was 0.668, the relative viability ([1]; first compound 4 µM) was 0.626 and the relative viability ([2]; first compound 0.04 µM) was 0.284. It also gave a relative viability ([2]; first compound 0.1265 µM) of 0.247, a relative viability ([2]; first compound 0.4 µM) of 0.327 and a relative viability ([2]; first compound 1.265 µM) of 0.264. It also gave a relative viability ([2]; first compound 4 µM) of 0.268, a relative viability ([3]; first compound 0.1265 µM) of 0.569 and a relative viability ([3]; first compound 0.4 µM) of 0.607. It also gave a relative viability ([3]; first compound 1.265 µM) of 0.58, a relative viability ([3]; first compound 4 µM) of 0.564 and a relative viability ([4]; first compound 0.04 µM) of 0.663. The relative viability ([4]; first compound 0.1265 µM) was 0.663, the relative viability ([4]; first compound 0.4 µM) was 0.684 and the relative viability ([4]; first compound 1.265 µM) was 0.653. The relative viability ([4]; first compound 4 µM) was 0.669, the relative viability ([5]; first compound 0.04 µM) was 0.768 and the relative viability ([5]; first compound 0.1265 µM) was 0.696. It also gave a relative viability ([5]; first compound 0.4 µM) of 0.558, a relative viability ([5]; first compound 1.265 µM) of 0.877 and a relative viability ([5]; first compound 4 µM) of 0.714. The relative viability ([6]; first compound 0.04 µM) was 0.902, the relative viability ([6]; first compound 0.1265 µM) was 0.879 and the relative viability ([6]; first compound 0.4 µM) was 0.908. The relative viability ([6]; first compound 4 µM) was 0.944, the relative viability ([7]; first compound 0.04 µM) was 0.931 and the relative viability ([7]; first compound 0.1265 µM) was 0.867. The relative viability ([7]; first compound 0.4 µM) was 0.903, the relative viability ([7]; first compound 1.265 µM) was 0.791 and the relative viability ([7]; first compound 4 µM) was 0.782. The relative viability ([8]; first compound 0.04 µM) was 0.317, the relative viability ([8]; first compound 0.1265 µM) was 0.345 and the relative viability ([8]; first compound 0.4 µM) was 0.434. It also gave a relative viability ([8]; first compound 1.265 µM) of 0.315, a relative viability ([8]; first compound 4 µM) of 0.361 and a relative viability ([9]; first compound 0.04 µM) of 0.86. It also gave a relative viability ([9]; first compound 0.1265 µM) of 0.823, a relative viability ([9]; first compound 0.4 µM) of 0.928 and a relative viability ([9]; first compound 1.265 µM) of 0.877. The relative viability ([9]; first compound 4 µM) was 0.881, the relative viability ([10]; first compound 0.04 µM) was 0.516 and the relative viability ([10]; first compound 0.1265 µM) was 0.384. It also gave a relative viability ([10]; first compound 0.4 µM) of 0.645, a relative viability ([10]; first compound 1.265 µM) of 0.484 and a relative viability ([10]; first compound 4 µM) of 0.735. For the same compound, the relative viability ([11]; first compound 0.04 µM) was 0.696, the relative viability ([11]; first compound 0.1265 µM) was 0.568 and the relative viability ([11]; first compound 0.4 µM) was 0.683. The relative viability ([11]; first compound 4 µM) was 0.557, the relative viability ([12]; first compound 0.04 µM) was 0.563 and the relative viability ([12]; first compound 0.1265 µM) was 0.527. For the same compound, the relative viability ([12]; first compound 0.4 µM) was 0.647, the relative viability ([12]; first compound 1.265 µM) was 0.492 and the relative viability ([12]; first compound 4 µM) was 0.521. For the same compound, the relative viability ([13]; first compound 0.04 µM) was 0.308, the relative viability ([13]; first compound 0.1265 µM) was 0.296 and the relative viability ([13]; first compound 0.4 µM) was 0.356. It also gave a relative viability ([13]; first compound 1.265 µM) of 0.363, a relative viability ([13]; first compound 4 µM) of 0.419 and a relative viability ([14]; first compound 0.04 µM) of 0.769. For the same compound, the relative viability ([14]; first compound 0.1265 µM) was 0.764, the relative viability ([14]; first compound 0.4 µM) was 0.794 and the relative viability ([14]; first compound 1.265 µM) was 0.746. The relative viability ([14]; first compound 4 µM) was 0.765, the relative viability ([15]; first compound 0.04 µM) was 0.539 and the relative viability ([15]; first compound 0.1265 µM) was 0.612. For the same compound, the relative viability ([15]; first compound 0.4 µM) was 0.591, the relative viability ([15]; first compound 1.265 µM) was 0.528 and the relative viability ([15]; first compound 4 µM) was 0.536. The relative viability ([16]; first compound 0.04 µM) was 0.519, the relative viability ([16]; first compound 0.1265 µM) was 0.578 and the relative viability ([16]; first compound 1.265 µM) was 0.52. For the same compound, the relative viability ([16]; first compound 4 µM) was 0.522, the relative viability ([17]; first compound 0.04 µM) was 0.59 and the relative viability ([17]; first compound 0.1265 µM) was 0.54. The relative viability ([17]; first compound 0.4 µM) was 0.666, the relative viability ([17]; first compound 1.265 µM) was 0.533 and the relative viability ([17]; first compound 4 µM) was 0.599. For the same compound, the relative viability ([18]; first compound 0.04 µM) was 0.393, the relative viability ([18]; first compound 0.1265 µM) was 0.294 and the relative viability ([18]; first compound 0.4 µM) was 0.372. The relative viability ([18]; first compound 1.265 µM) was 0.306, the relative viability ([18]; first compound 4 µM) was 0.299 and the relative viability ([19]; first compound 0.04 µM) was 0.729. The relative viability ([19]; first compound 0.1265 µM) was 0.794, the relative viability ([19]; first compound 0.4 µM) was 0.809 and the relative viability ([19]; first compound 1.265 µM) was 0.822. For the same compound, the relative viability ([19]; first compound 4 µM) was 0.694, the relative viability ([20]; first compound 0.04 µM) was 1.06 and the relative viability ([20]; first compound 0.1265 µM) was 1.07. The relative viability ([20]; first compound 0.4 µM) was 0.959, the relative viability ([20]; first compound 1.265 µM) was 0.994 and the relative viability ([20]; first compound 4 µM) was 1.02. The relative viability ([21]; first compound 0.04 µM) was 0.239, the relative viability ([21]; first compound 0.1265 µM) was 0.229 and the relative viability ([21]; first compound 0.4 µM) was 0.238. For the same compound, the relative viability ([21]; first compound 1.265 µM) was 0.244, the relative viability ([21]; first compound 4 µM) was 0.212 and the relative viability ([22]; first compound 0.04 µM) was 0.83. It also gave a relative viability ([22]; first compound 0.1265 µM) of 0.886, a relative viability ([22]; first compound 0.4 µM) of 0.88 and a relative viability ([22]; first compound 1.265 µM) of 0.912. The relative viability ([22]; first compound 4 µM) was 0.782, the relative viability ([23]; first compound 0.04 µM) was 0.677 and the relative viability ([23]; first compound 0.1265 µM) was 0.682. The relative viability ([23]; first compound 0.4 µM) was 0.774, the relative viability ([23]; first compound 1.265 µM) was 0.876 and the relative viability ([23]; first compound 4 µM) was 0.667.
